In publication PMC9096233, “Identification of an Au(I) N-Heterocyclic Carbene Compound as a Bactericidal Agent Against Pseudomonas aeruginosa” (Frontiers in Chemistry, 2022):
Read-outs that look alike come from different tables or passages of the source.

Legend:
pyoverdine = assay: Quantification of secreted pyoverdine; format: cell-based, Pseudomonas aeruginosa; conditions: 15 μM; 24 h
Method: To quantify the secreted virulence factors, overnight P. aeruginosa PAO1 was diluted in fresh M9 medium and cultured to a final OD600 value of 0.15. Then Au1 or auranofin were added into culture with indicated concentrations. After 24 h incubation at 37°C, the bacterial supernatants were collected by centrifugation at 4,000 g for 10 min at 4°C and filtered using a 0.22 μm syringe filter (Millipore). The secreted virulence factors in the supernatant were quantified by the methods described below.

P. aeruginosa biofilm = assay: Biofilm inhibition, crystal violet; format: cell-based, Pseudomonas aeruginosa; conditions: 48 h static incubation
Method: P. aeruginosa was cultured in 24-well microtiter plate (Corning, NY, United States) for static biofilm formation. For biofilm inhibition assay, approximately 1 ml of bacterial overnight culture were diluted in fresh M9 medium with a final OD600 value of 0.33 and transferred into each well of microtiter plate in the absence or presence of sub-lethal concentration of Au1 or auranofin (2.5, 10, and 15 μM). After static incubation at 37°C for 48 h, weakly adherent planktonic cells were removed from the microtiter plate by washing with phosphate buffered saline (PBS) for three times gently. The adherent biofilms were dried and stained with 0.1% (w/v) crystal violet for 15 min. Excess dye was removed by rinsing the plate three times with PBS. Crystal violet was solubilized from the stained biofilms by adding 30% acetic acid and the biofilms were quantified by measuring the 595 nm absorbance. Each experiment was performed in triplicates.

P. aeruginosa PAO1 = assay: Mouse skin wound infection model; format: in vivo
Method: Six-week-old female BALB/c mice were used for animal experiments to evaluate the healing effect of infected wounds in vivo. Briefly, mouse backs were cut to generate a circular wound (diameter 0.6 cm) with a hole punch and the wound was infiltrated using a medical cotton swab with P. aureginosa (overnight culture, OD600 = 0.3). The mice were randomly divided into three groups, including PBS, auranofin, and Au-1 groups (n = 5 in each group). The drugs were dissolved in DMSO and diluted with glycerol to a final concentration of 50 μM. After the bacterial fluid was dry, about 20 μL of the drug was added to the wound. Body weights and wound photography was recorded on days 0, 1, 3, 5, and 8. And on the 8th day, the mice were euthanized by chloral hydrate, the infectious tissues in all groups were collected and cultured into the LB plate for colony counting. The skin tissues were also fixed by paraformaldehyde solution (4%) for H&E, Gram, and Masson’s trichrome staining.
The above results promoted us to further investigate whether the Au1 compound was also efficacious in an in vivo animal infection model. To this end, we used a mouse wound infection model to assess the anti-P. aeruginosa efficacy of Au1 as described previously ([Liao et al., 2017b]). In brief, a circular wound with a diameter of 6 mm was created on the flank of mice, and approximately 5 × 10^8 CFU of P. aeruginosa PAO1 were dipped onto the wound by medical cotton swab to induce infection. Treatment is administered on the 1st day with auranofin or Au1 compound (50 μM, 20 μL) was applied to the wounds. The wound sizes and mice weights were recorded each day. On the 8th day, the infection sites were excised and part of the tissues was fixed in 4% paraformaldehyde and embedded in paraffin. Four-micrometer sections were cut, stained with Gram, H&E, and Masson’s trichrome stain. The remained tissues were homogenized and serially diluted for CFU quantification (Figure 6A).

P. aeruginosa [1] = assay: Drug resistance development assay (serial passage); format: cell-based, Pseudomonas aeruginosa; conditions: serial passage at sub-lethal concentrations over 14 days
Method: Development of resistance to the Au1 compound and the antibiotics (ciprofloxacin and tobramycin) were assessed as described by [Habets and Brockhurst (2012)]. The MIC assay was performed on the first day as described above. […] Thereafter, a new passage MIC measurement assay was prepared using diluted bacterial cells grown at 0.5-fold MIC suspension. This was repeated for 14 passages and the MIC values for Au1, ciprofloxacin and tobramycin were recorded for each passage.

[2] = tested on: Staphylococcus aureus Newman; assay: MIC by standard broth dilution; format: cell-based; conditions: Table S1
Method: (§1) Pseudomonas aeruginosa strain PAO1 (P. aeruginosa) was grown in M9 minimal medium (1.0 g/L NH4Cl, 0.5 g/L NaCl, 6.0 g/L Na2HPO4, 3.0 g/L KH2PO4) supplemented with 1.0 mM MgSO4, 1.0 mM ZnSO4, 0.2 mM CaCl2, 0.4% (w/v) glucose and 0.2% (w/v) casein hydrolysate. Gram-negative Escherichia coli strain K-12 (E. coli) and Burkholderia cepacia J2315 (B. cepacia) were cultured in Luria-Bertani (LB) medium (5 g/L yeast extract, 10 g/L tryptone, 10 g/L sodium chloride). The Gram-positive Staphylococcus aureus strain Newman (S. aureus) was grown in Tryptic Soy Broth (TSB) medium (17 g/L Tryptone, 3 g/L Phytone, 5 g/L sodium chloride, 2.5 g/L dipotassium phosphate and glucose 2.5 g/L).
(§2) The minimal inhibitory concentration (MIC) values of the gallium compounds were determined using a standard broth dilution method as described previously ([Wiegand et al., 2008]). In brief, the compounds were two-fold serially diluted to concentrations from 400 to 1.56 μM. Approximately 50 μL of the compound solution was added to a 96-well microtiter plate and mixed with 50 μL of bacteria culture in log phase (10^6 CFU/ml). The bacterial culture was further incubated at 37°C for 22–24 h. The OD600 values for each well was recorded on a microplate reader. The MICs value was defined as the lowest compound concentration that inhibited 95% of the bacterial growth.

[3] = tested on: Pseudomonas aeruginosa strain PAO1; assay: MIC by standard broth dilution; format: cell-based; conditions: read-out: MIC
Method: as §1, §2

Escherichia coli MG16552 = assay: MIC by standard broth dilution; format: cell-based; conditions: Table S1
Method: as §1, §2

[4] = tested on: Burkholderia cepacia J2315; assay: MIC by standard broth dilution; format: cell-based; conditions: Table S1
Method: as §1, §2

P. aeruginosa [5] = assay: Time-course of bacterial membrane permeation, propidium iodide microplate; format: cell-based, Pseudomonas aeruginosa; conditions: 50 μM; 37°C
Method: Overnight P. aeruginosa culture was diluted 1:100 with fresh M9 medium and grown to early-mid exponential phase (OD600 = 0.4–0.6). The culture was then diluted 1:10 into PBS and treated with the 50 μM concentration of Au1 or auranofin for 30 min. Then the bacteria were incubated with propidium iodide (PI), a dye that is excluded from cells with impermeable membrane. The CytoFLEX flow cytometry (Beckman Coulter) was used to measure the bacterial fluorescent intensities and the data was analyzed using CytExpert 2.4 software. For the time-course detection of the bacterial permeability induced by Au1 or auranofin, P. aeruginosa in early-mid exponential phase (OD600 = 0.2) was incubated with PI dye on a 96-well plate. Au1 or auranofin was added to a final concentration of 50 μM. The fluorescence signal (561 nm excitation, 590 nm emission) and OD600 value were recorded on Cytation5 microplate reader. Each experiment was performed in triplicates.

NHC^Me-Au-Cl [Au1] was tested, and the “decrease of pyoverdine siderophore secretion” value (pyoverdine) was 50%, the “lowest concentration sufficient to inhibit biofilm formation” value (P. aeruginosa biofilm) was 2.5 µM and the “state of infected wound” value (P. aeruginosa PAO1; 50 μM, 20 μL on wound, 8th day) was “almost completely recovered”. The “toxicity to the mice (mice weights)” value (P. aeruginosa PAO1; 50 μM, 20 μL on wound, 8 days) was “no significant toxicity”, the wound healing rate (P. aeruginosa PAO1; 50 μM, 20 μL on wound, vs auranofin-treated or control group) was “much faster” and the “bacteria in wound tissue (Gram staining)” value (P. aeruginosa PAO1; 8th day) was “no bacteria was observed”. For the same substance, the “reduction of live bacteria in the infection sites” value (P. aeruginosa PAO1; 8th day, CFU, compared to control group) was 90%, the development of resistance (P. aeruginosa [1]) was “not observed” and the MIC [2] was less than 1.56 µM. For the same substance, the MIC ([3]; P. aeruginosa PAO1, lowest concentration inhibiting 95% of growth, 22–24 h, Table 1) was 25 µM, the MIC ([3]; Pseudomonas aeruginosa PAO1, Table S1) was 25 µM and the MIC (Escherichia coli MG16552) was less than 1.56 µM. For the same substance, the MIC [4] was 25 µM and the “time to initiation of bacterial membrane rupture” value (P. aeruginosa [5]) was 1.5 h.
